Assay [1] deals with MRC-5: Human fetal lung fibroblasts. The assay is described as follows: Cytotoxicity on MRC-5 cells. The following applies: MRC5. Type of assay: cell-based. Here is the method:
(§1) Fractions and isolated compounds were evaluated for antimicrobial activity in an integrated screening panel as reported before.

Another assay deals with Plasmodium falciparum K1. The assay is described as follows: Antiplasmodial activity. Type of assay: cell-based. The following applies: K1, read-out: IC50 Pf-K1. The protocol:
as §1

The next assay deals with Trypanosoma brucei. The assay is described as follows: Antitrypanosomal activity, T. brucei. The note with it: read-out: IC50 T. bruc. Type of assay: cell-based. Here is the method: as §1
In another assay the test system is Trypanosoma cruzi. Description: Antitrypanosomal activity, T. cruzi. Type of assay: cell-based. The following applies: read-out: IC50 T. cruz. The protocol:
as §1

A further assay concerns Leishmania infantum. The assay is described as follows: Antileishmanial activity, L. infantum. The assay is classed as cell-based. The protocol:
as §1

Assay [2] relates to Peritoneal Murine Macrophages (PMM). Description: Cytotoxicity on peritoneal murine macrophages. The assay is classed as cell-based. The following applies: Mus musculus, Macrophage. Here is the method: as §1
Assay [3] deals with formation of Advanced Glycation Endproducts (AGEs), BSA-glucose. Description: BSA-glucose antiglycation assay. The following applies: for BSA-Glucose % Inhibition: at 0.25 mM (table footnote a). The assay is classed as biochemical, bovine. Here is the method:
The BSA (bovine serum albumin) -glucose and BSA-MGO (methyl glyoxal) antiglycation assays were carried out as reported before. The test protocol is attached as Supplementary Materials. […]
1. Antiglycation Assay (BSA-Glucose Assay)
The antiglycation assay was performed according to the method developed by Matsuura et al.
(2002) with minor modifications. The reaction mixture (300 μL) contained bovine serum albumin
(BSA) (10 mg/mL, 135 μL), D-glucose (500 mM, 135 μL) dissolved in phosphate buffer (50 mM, pH
7.4, containing sodium azide (0.02%, added to prevent bacterial growth) and test compounds (30 μL),
at different final concentrations (1.5–0.023 mM for isolated constituents or 100–1.17 μg/mL for
extracts) dissolved in 100 % DMSO. The mixtures were incubated at 60 °C for 48 h. After incubation,
the reaction mixture was allowed to cool down at room temperature. Then 100 μL reaction mixture
was transferred to a new plastic tube (1.5 mL) and the reaction was stopped by adding 10 μL of 100%
(w/v) trichloroacetic acid (TCA) and to precipitate proteins. The TCA-added mixture was kept at 4 °C
for 10 min, followed by centrifugation (14,000 rpm, 4 °C, 4 min). The supernatant containing unreacted
D-glucose, test sample and interfering substances was discarded, whereas the precipitate containing
AGEs-BSA was redissolved with 0.8 mL alkaline PBS (137 mM NaCl, 8.1 mM Na2HPO4, 2.68 mM KCl,
1.47 mM KH2PO4, pH 10). The change in fluorescence intensity (excitation 335 nm, emission 385 nm;
excitation 370, emission 440) due to formation of AGEs was monitored by spectrofluorometry
(Tecan™ Infinite M200, Giessen, The Netherlands). In order to eliminate interference by autofluorescenc e
of the test compounds, a parallel incubation of test substance with BSA at 60 °C without D-glucose
was performed for all samples. Quercetin (0.5–0.0312 mM final concentration) and aminoguanidine
(3–0.046 mM final concentration) were used as reference compounds.
2. The AGEs Inhibition was Calculated as
% inhibition = {1 − (FBSA + glucose + test substance − FBSA + test substance)/(FBSA
+ glucose − FBSA)} × 100 (1)
where F is the fluorescence intensity.
calculated using Sigma plot® 13.0. […]

The test system of assay [4] is formation of Advanced Glycation Endproducts (AGEs), BSA-MGO (methyl glyoxal). Description: BSA-MGO antiglycation assay. Type of assay: biochemical, bovine. The protocol: The BSA (bovine serum albumin) -glucose and BSA-MGO (methyl glyoxal) antiglycation assays were carried out as reported before. The test protocol is attached as Supplementary Materials.
Supplementary Materials: Antiprotozoal and
Antiglycation Activities of Sesquiterpene Coumarins
from Ferula narthex Exudate […]
2. The AGEs Inhibition was Calculated as […]
3. Protein-Glyoxal Interaction (BSA-MGO Assay)
The antiglycation assay using methylgloxyl (MGO) was performed according to the method
developed by Peng et al. (2007) with slight modifications. Briefly, methylglyoxal (135 μL, 5.75 mM)
was incubated with BSA (135 μL, 10 mg/mL) dissolved in phosphate buffer (50 mM, pH 7.4,
containing sodium azide (0.02%), added to prevent bacterial growth) and test compounds (30 μL) at
different final concentrations (1.5–0.023 mM) in 100% DMSO. The reaction mixture was incubated at
37 °C for one week. Control solutions only contained methylglyoxal (135 μL, 5.75 mM) BSA (135 μL,
1 0 mg/mL) and DMSO (100%) only. The blank samples of similar composition were also prepared
simultaneously and kept at 4 °C for one week. The change in fluorescence intensity (excitation
335 nm, emission 385 nm; excitation 370, emission 440) due to formation of AGEs was monitored by
spectrofluorometry (Tecan® Infinite M200, Giessen, The Netherlands). Aminoguanidine (3–0.046 mM
final concentration) was used as reference compound. The AGEs inhibition was calculated as
% AGEs inhibition = [1 − (S − Sb)/(C − Cb)] × 100 (2)
where S and C were fluorescence of test samples (in DMSO) and control (test mixtures containing
only DMSO) incubated at 37 °C, and where Sb and Cb were fluorescence for samples incubated at 4 °C. […]

For assay [5], the system named is Leishmania promastigote stage. Also on record: method as in doi:10.1016/j.phytol.2014.04.009. The note with it: cited from earlier work.
Another assay relates to Microsporum canis. The assay is described as follows: Antifungal screening, M. canis. The assay is classed as cell-based. The protocol:
as §1

Another assay has as its system Aspergillus fumigatus. The assay is described as follows: Antifungal screening, A. fumigatus. The assay is classed as cell-based. The protocol: as §1
Assay [6] deals with formation of Advanced Glycation Endproducts (AGEs), BSA-MGO (methyl glyoxal). The assay is described as follows: BSA-MGO antiglycation assay. Type of assay: biochemical, bovine. The following applies: at 2 mM.
The subject of a further assay is Escherichia coli. Description: Antibacterial screening, E. coli. The assay is classed as cell-based. Here is the method: as §1
Another assay relates to Staphylococcus aureus. Description: Antibacterial screening, S. aureus. Type of assay: cell-based. Here is the method: as §1

pIC50: −log10 of the molar value. Converted amounts (≈) assume the structure as drawn.

For orientation: pIC50 means −log10 of the IC50, conventionally taken in molar units. Take `CC1=CC[C@@H]2C(C)(C)[C@H](O)CC[C@@]2(C)[C@@H]1COc1ccc2ccc(=O)oc2c1` [Compound 1, Feselol]: the pIC50 in assay [1] was 5.10; in the assay with Plasmodium falciparum K1, 4.65; in the assay on Trypanosoma brucei it was 5.09; in the assay with Trypanosoma cruzi it was 5.07; in the assay on Leishmania infantum, 5.17; in [2] it was 5.10. The compound further gave a pIC50 in assay [4] of 2.77. Further, in assay [3], the “BSA-Glucose IC50” value is “did not reach the 50% inhibition level”. Also, the “BSA-Glucose % Inhibition” value in assay [3] turned out to be 47%.
Turning to `O=c1c(O)c(-c2ccc(O)c(O)c2)oc2cc(O)cc(O)c12` [Quercetin, reference compound], the pIC50 is 3.64 in assay [3] and 3.46 in [4].
On to `CC1=CC[C@@H]2C(C)(C)[C@@H](O)CC[C@@]2(C)[C@@H]1COc1ccc2ccc(=O)oc2c1` [conferol], for which, in assay [5], the “IC value, antileishmanial activity” value was 11.51 µg/mL.
Consider `O=C(Cn1ccnc1[N+](=O)[O-])NCc1ccccc1` [benznidazole, reference compound], for which the pIC50 in the assay on Trypanosoma cruzi is 5.48.
By IC50 is commonly meant the concentration that gives 50% inhibition. The low end stands for greater potency, the high end for weaker potency. The compound `CN(C/C=C/C#CC(C)(C)C)Cc1cccc2ccccc12` [terbinafine] had an IC50 in the assay on Microsporum canis of 0.11 µg/mL (≈ 0.377 µM). The compound further had a pIC50 with Aspergillus fumigatus of 6.10.
For the compound `CC(=O)O[C@H](CC/C(C)=C/CC/C(C)=C/COc1ccc2ccc(=O)oc2c1)C(C)(C)O` [Compound 6, 10′R-Acetyl-karatavacinol], in [3], the “BSA-Glucose IC50” value was “did not reach the 50% inhibition level” and the “BSA-Glucose % Inhibition” value was found to be 36%. Besides, the “BSA-MGO IC50” value in assay [4] is “the 50% inhibition level was not reached”. Besides, the “BSA-MGO % Inhibition” value in assay [6] worked out at 20%.
For the compound `COc1cc(Cc2cnc(N)nc2N)cc(OC)c1OC` [trimethoprim], it took 0.25 µg/mL to reach half-maximal inhibition in the assay with Escherichia coli (IC50).
In the case of `C/C(=C\COc1ccc2ccc(=O)oc2c1)CC/C=C(\C)CC[C@@H](O)C(C)(C)O` [Compound 5, 10′R-Karatavacinol], the pIC50 is 4.69 in assay [1]; 4.80 in the assay with Plasmodium falciparum K1; 4.49 in the assay on Trypanosoma brucei; 5.03 with Trypanosoma cruzi; 4.49 in the assay with Leishmania infantum; 4.49 in [2]. The same compound had a pIC50 in assay [4] of 2.74. Moreover, in assay [3], the “BSA-Glucose IC50” value is on record as “did not reach the 50% inhibition level”. Besides, the “BSA-Glucose % Inhibition” value in assay [3] is reported as 32%.
`CC1=CC(=O)[C@@H]2C(C)(C)[C@H](O)CC[C@@]2(C)[C@@H]1COc1ccc2ccc(=O)oc2c1` [Compound 2, Ligupersin A] gave a pIC50 in assay [3] of 3.39. In assay [4], the “BSA-MGO IC50” value was “the 50% inhibition level was not reached”. Further, the “BSA-MGO % Inhibition” value in assay [6] is reported as 40%.
With `CC(=O)OC(CC=C(C)C)/C(C)=C/C(O)C/C(C)=C/COc1ccc2ccc(=O)oc2c1` (centres unmarked) [Compound 3, 8′-O-Acetyl-asacoumarin A], the negative-log IC50 (pIC50) in [1] was 4.50; with Plasmodium falciparum K1, 5.13; in the assay with Trypanosoma brucei, 4.49; with Trypanosoma cruzi it was 4.72; in the assay with Leishmania infantum, 4.90; in assay [2], 4.49. This compound also showed a pIC50 in [4] of 2.99. For the same compound, the “BSA-Glucose IC50” value in assay [3] is reported as “did not reach the 50% inhibition level”. In [3], the “BSA-Glucose % Inhibition” value is recorded as 44%.
As for `CCN(CC)CCCC(C)Nc1ccnc2cc(Cl)ccc12` (centres unmarked) [chloroquine, reference compound], in the assay on Plasmodium falciparum K1, the pIC50 was 6.80.
`CC[C@H]1OC(=O)[C@H](C)[C@@H](O[C@H]2C[C@@](C)(OC)[C@@H](O)[C@H](C)O2)[C@H](C)[C@@H](O[C@@H]2O[C@H](C)C[C@H](N(C)C)[C@H]2O)[C@](C)(O)C[C@@H](C)C(=O)[C@H](C)[C@@H](O)[C@]1(C)O` [erythromycin] displayed an IC50 in the assay on Staphylococcus aureus of 11.2 µg/mL (≈ 15.3 µM).
In the assay with Escherichia coli, `O=C(N[C@H](CO)[C@H](O)c1ccc([N+](=O)[O-])cc1)C(Cl)Cl` [chloramphenicol] had a pIC50 of 5.31.
Regarding `N=C(N)NN` [Aminoguanidine, reference compound], the pIC50 was 2.76 in [3] and 3.82 in assay [4].
For `Cc1ccc(C(=O)Nc2ccc(S(=O)(=O)O)c3cc(S(=O)(=O)O)cc(S(=O)(=O)O)c23)cc1NC(=O)c1cccc(NC(=O)Nc2cccc(C(=O)Nc3cc(C(=O)Nc4ccc(S(=O)(=O)O)c5cc(S(=O)(=O)O)cc(S(=O)(=O)O)c45)ccc3C)c2)c1` [suramine, reference compound], the pIC50 in the assay on Trypanosoma brucei is 7.52.
As to `CC(C)=CCC(O)/C(C)=C/C(O)C/C(C)=C/COc1ccc2ccc(=O)oc2c1` (centres unmarked) [Compound 4, Asacoumarin A], the pIC50 in assay [1] is 4.93; with Plasmodium falciparum K1, 5.89; with Trypanosoma brucei, 4.49; with Trypanosoma cruzi, 4.98; with Leishmania infantum, 4.90; in [2], 4.49. Besides, the pIC50 in assay [3] is 2.74. The “BSA-MGO IC50” value in [4] is “the 50% inhibition level was not reached”. Moreover, in assay [6], the “BSA-MGO % Inhibition” value is recorded as 35%.

Source of the values: article PMC6274357, “Antiprotozoal and Antiglycation Activities of Sesquiterpene Coumarins from Ferula narthex Exudate” (Molecules, 2016).
